Measured values as given in US11643417B2, “Tetrahydrobenzofurodiazepinone compound and pharmaceutical use thereof” (priority 2020, dated 2023).

Target: human Pim-1 (Homo sapiens (Human), UniProt P11309)
Assay: biochemical
Type: biochemical
Conditions: Ki converted from IC50; purified human Pim-1, Pim2tide substrate, ADP-Glo; read-out: hPim1 Ki

Chain of human Pim-1 (P11309 whole entry): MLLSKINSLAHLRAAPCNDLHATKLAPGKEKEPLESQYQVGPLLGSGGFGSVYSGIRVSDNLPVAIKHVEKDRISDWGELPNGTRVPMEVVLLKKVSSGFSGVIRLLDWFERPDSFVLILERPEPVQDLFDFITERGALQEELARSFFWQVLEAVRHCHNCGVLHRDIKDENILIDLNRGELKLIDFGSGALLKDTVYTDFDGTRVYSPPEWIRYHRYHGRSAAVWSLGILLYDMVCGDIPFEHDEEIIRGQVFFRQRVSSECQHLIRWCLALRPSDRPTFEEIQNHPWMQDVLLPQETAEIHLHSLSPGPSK

**Q.** Which Ki does the source give for `CC1(CO)CCC(CCN2CCNC(=O)c3oc4ccc(C(F)(F)F)cc4c32)CC1` (stereo not drawn) [Example 94] here?
**A.** 0.129 nM

**Q.** With `O=C1NCCN(CC(F)(F)[C@H]2CO[C@H](CO)CO2)c2c1oc1ccc(C(F)(F)F)cc21` [Example 95, 1-(2,2-difluoro-2-((2R,5R)-5-(hydroxymethyl)-1,4-dioxan-2-yl)ethyl)-9-(trifluoromethyl)-1,2,3,4-tetrahydro-5H-benzofuro[3,2-e][1,4]diazepin-5-one] as the molecule, how does the Ki read?
**A.** 0.0443 nM

**Q.** How did the Ki turn out when `O=C1NCCN(CC(F)(F)[C@H]2CO[C@@H](CO)CO2)c2c1oc1ccc(C(F)(F)F)cc21` [Example 96] was run?
**A.** 0.0283 nM

**Q.** For `O=C1NCCN(CCC2CCC(CO)CC2)c2c1oc1ccc(C(F)(F)F)cc21` (stereo not drawn) [Example 97], which Ki is on record?
**A.** 0.107 nM

**Q.** How did the Ki turn out when `CC(C)(O)C1CCC(CCN2CCNC(=O)c3oc4ccc(C(F)(F)F)cc4c32)CC1` (stereo not drawn) [Example 98] was run?
**A.** 1.07 nM

**Q.** `CNC(=O)C1CCC(CCN2CCNC(=O)c3oc4ccc(C(F)(F)F)cc4c32)CC1` (stereo not drawn) [Example 100] was tested. Which Ki did it give?
**A.** 1 nM

**Q.** How did the Ki turn out when `CN(C)C(=O)C1CCC(CCN2CCNC(=O)c3oc4ccc(C(F)(F)F)cc4c32)CC1` (stereo not drawn) [Example 101] was run?
**A.** 0.775 nM

**Q.** With `O=C1NCCN(CCC2CCC(O)(C(=O)O)CC2)c2c1oc1ccc(C(F)(F)F)cc21` (stereo not drawn) [Example 102] as the molecule, how does the Ki read?
**A.** 5.47 nM

**Q.** For `NC(=O)C1CCC(CCN2CCNC(=O)c3oc4ccc(C(F)(F)F)cc4c32)CC1` (stereo not drawn) [Example 104], which Ki is on record?
**A.** 0.819 nM

**Q.** `O=C1NCCN(CCC2CCC(c3ncn[nH]3)CC2)c2c1oc1ccc(C(F)(F)F)cc21` (stereo not drawn) [Example 105] was tested. Which Ki did it give?
**A.** 0.607 nM

**Q.** `O=C1NCCN(CC(F)(F)[C@H]2CC[C@H](O)CC2)c2c1oc1ccc(C(F)(F)F)cc21` [Example 106, 1-(2,2-difluoro-2-((1r,4r)-4-hydroxycyclohexyl)ethyl)-9-(trifluoromethyl)-1,2,3,4-tetrahydro-5H-benzofuro[3,2-e][1,4]diazepin-5-one] was tested. Which Ki did it give?
**A.** 0.0409 nM

**Q.** With `O=C1NCCN(CC(F)(F)C2CCC(O)CC2)c2c1oc1ccc(C(F)(F)F)cc21` (stereo not drawn) [Example 107, 1-(2,2-difluoro-2-(4-hydroxycyclohexyl)ethyl)-9-(trifluoromethyl)-1,2,3,4-tetrahydro-5H-benzofuro[3,2-e] [1,4]diazepin-5-one] as the molecule, how does the Ki read?
**A.** 0.0862 nM

**Q.** Which Ki does the source give for `O=C1NCCN(CC[C@H]2CC[C@](O)(CCO)CC2)c2c1oc1ccc(C(F)(F)F)cc21` [Example 108] here?
**A.** 0.298 nM

**Q.** With `O=C1NCCN(CC[C@H]2CC[C@@](O)(CCO)CC2)c2c1oc1ccc(C(F)(F)F)cc21` [Example 109] as the molecule, how does the Ki read?
**A.** 0.193 nM

**Q.** For `O=C1NCCN(CCC2CCC(C3(O)CC3)CC2)c2c1oc1ccc(C(F)(F)F)cc21` (stereo not drawn) [Example 110], which Ki is on record?
**A.** 0.133 nM

**Q.** For `O=C1NCCN(CCC2CCC(O)(C3(O)CC3)CC2)c2c1oc1ccc(C(F)(F)F)cc21` (stereo not drawn) [Example 111], which Ki is on record?
**A.** 0.011 nM

**Q.** With `COCC1(O)CCC(CCN2CCNC(=O)c3oc4ccc(C(F)(F)F)cc4c32)CC1` (stereo not drawn) [Example 112] as the molecule, how does the Ki read?
**A.** 1.03 nM

**Q.** How did the Ki turn out when `O=C1NCCN(CCC23CC(CO)(C2)C3)c2c1oc1ccc(C(F)(F)F)cc21` [Example 113] was run?
**A.** 0.726 nM

**Q.** With `O=C1NCCN(CCC2CC(CO)C2)c2c1oc1ccc(C(F)(F)F)cc21` (stereo not drawn) [Example 117] as the molecule, how does the Ki read?
**A.** 0.801 nM

**Q.** For `O=C1NCCN(CC(F)(F)C2CCC(O)(CO)CC2)c2c1oc1ccc(C(F)(F)F)cc21` (stereo not drawn) [Example 120], which Ki is on record?
**A.** 0.006 nM

**Q.** For `N#CCC1(O)CCC(CCN2CCNC(=O)c3oc4ccc(C(F)(F)F)cc4c32)CC1` (stereo not drawn) [Example 121], which Ki is on record?
**A.** 0.705 nM

**Q.** `CS(=O)(=O)CC1(O)CCC(CCN2CCNC(=O)c3oc4ccc(C(F)(F)F)cc4c32)CC1` (stereo not drawn) [Example 122] was tested. Which Ki did it give?
**A.** 0.532 nM

**Q.** Which Ki does the source give for `CS(=O)(=O)C1CCC(CCN2CCNC(=O)c3oc4ccc(C(F)(F)F)cc4c32)CC1` (stereo not drawn) [Example 123] here?
**A.** 0.784 nM

**Q.** Which Ki does the source give for `O=C1NC2(CC2)CN(CCC2CCC(O)CC2)c2c1oc1ccc(C(F)(F)F)cc21` (stereo not drawn) [Example 126] here?
**A.** 0.464 nM

Same assay, conditions: hPim1 Ki (nM), Ki converted from IC50; purified human Pim-1, Pim2tide substrate, ADP-Glo

**Q.** How did the Ki turn out when `O=C1NCCN(CCC2CCC(C3(O)CC3)CC2)c2c1oc1ccc(C(F)(F)F)cc21` (stereo not drawn) [Example 99] was run?
**A.** 0.0764 nM

**Q.** How did the Ki turn out when `O=C1NC2(CC2)CN(CCC2CCC(O)(CO)CC2)c2c1oc1ccc(C(F)(F)F)cc21` (stereo not drawn) [Example 116] was run?
**A.** 0.0092 nM

**Q.** With `O=C1NC2(CC2)CN(CCC2CCC(O)CC2)c2c1oc1ccc(C(F)(F)F)cc21` (stereo not drawn) [Example 125] as the molecule, how does the Ki read?
**A.** 0.0592 nM
